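The compound was tested at five concentrations on cells cultured in 96-well plates, with a 48-hour exposure period. GI50: concentration for 50% inhibition of growth.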 Activity calls are given as the source filed them. Cut-off read from the data, not from the text of the source: active = GI50 up to about 1.1 µM and inactive = higher.
What was measured:
Assay in all cases: NCI tumour cell line growth inhibition, 48 h
COLO 205 = test system: COLO 205
EKVX = test system: EKVX
HOP-62 = test system: HOP-62
M14 = test system: M14
MCF7 = test system: MCF7
MDA-MB-435 = test system: MDA-MB-435
Malme-3M = test system: Malme-3M
OVCAR-4 = test system: OVCAR-4
OVCAR-5 = test system: OVCAR-5
RXF 393 = test system: RXF 393
SF-295 = test system: SF-295
SF-539 = test system: SF-539
SK-MEL-28 = test system: SK-MEL-28
SK-OV-3 = test system: SK-OV-3
SNB-75 = test system: SNB-75
SR = test system: SR
T47D = test system: T47D
TK-10 = test system: TK-10
OVCAR-8 = test system: OVCAR-8

Row | SMILES | GI50 (COLO 205) | GI50 (EKVX) | GI50 (HOP-62) | GI50 (M14) | GI50 (MCF7) | GI50 (MDA-MB-435) | GI50 (Malme-3M) | GI50 (OVCAR-4) | GI50 (OVCAR-5) | GI50 (RXF 393) | GI50 (SF-295) | GI50 (SF-539) | GI50 (SK-MEL-28) | GI50 (SK-OV-3) | GI50 (SNB-75) | GI50 (SR) | GI50 (T47D) | GI50 (TK-10) | GI50 (OVCAR-8)
1 | CCOC(=O)NC | > 100 µM (inactive) | > 100 µM (inactive) | > 100 µM (inactive) | > 100 µM (inactive) | > 100 µM (inactive) | > 100 µM (inactive) | > 100 µM (inactive) | > 100 µM (inactive) | > 100 µM (inactive) | > 100 µM (inactive) | > 100 µM (inactive) | > 100 µM (inactive) | > 100 µM (inactive) | > 100 µM (inactive) | > 100 µM (inactive) | > 100 µM (inactive) | > 100 µM (inactive) | > 100 µM (inactive) | –
2 | CN1CCN(CC(=O)Nc2cccc3ccccc23)CC1 | > 100 µM (inactive) | > 100 µM (inactive) | > 100 µM (inactive) | > 100 µM (inactive) | > 100 µM (inactive) | > 100 µM (inactive) | > 100 µM (inactive) | > 100 µM (inactive) | > 100 µM (inactive) | > 100 µM (inactive) | > 100 µM (inactive) | > 100 µM (inactive) | > 100 µM (inactive) | > 100 µM (inactive) | – | > 100 µM (inactive) | > 100 µM (inactive) | > 100 µM (inactive) | > 100 µM (inactive)
3 | Nc1nc(Cl)cc(NCC2(O)CC(CO)C2)n1 (stereo not given) | > 100 µM (inactive) | > 100 µM (inactive) | > 100 µM (inactive) | – | > 100 µM (inactive) | > 100 µM (inactive) | > 100 µM (inactive) | > 100 µM (inactive) | > 100 µM (inactive) | > 100 µM (inactive) | > 100 µM (inactive) | > 100 µM (inactive) | > 100 µM (inactive) | > 100 µM (inactive) | > 100 µM (inactive) | > 100 µM (inactive) | > 100 µM (inactive) | > 100 µM (inactive) | > 100 µM (inactive)
4 | CCOC(=O)c1ccc(Nc2nc3ccc(C(F)(F)F)cc3nc2-c2ccccc2)cc1 | – | > 100 µM (inactive) | 80 µM (inactive) | > 100 µM (inactive) | > 100 µM (inactive) | > 100 µM (inactive) | > 100 µM (inactive) | – | > 100 µM (inactive) | 97.3 µM (inactive) | 56.8 µM (inactive) | > 100 µM (inactive) | > 100 µM (inactive) | – | 41.3 µM (inactive) | > 100 µM (inactive) | 20.5 µM (inactive) | > 100 µM (inactive) | > 100 µM (inactive)
5 | COc1ccc(C2OCCN2C)cc1 (stereo not given) | > 100 µM (inactive) | > 100 µM (inactive) | > 100 µM (inactive) | > 100 µM (inactive) | > 100 µM (inactive) | > 100 µM (inactive) | > 100 µM (inactive) | > 100 µM (inactive) | > 100 µM (inactive) | > 100 µM (inactive) | > 100 µM (inactive) | > 100 µM (inactive) | – | > 100 µM (inactive) | 36.9 µM (inactive) | > 100 µM (inactive) | > 100 µM (inactive) | > 100 µM (inactive) | > 100 µM (inactive)
6 | Cc1ccc(NC(=O)c2cc(S(=O)(=O)N3CCNNC3=O)c(S)cc2Cl)cc1 | > 100 µM (inactive) | > 100 µM (inactive) | – | > 100 µM (inactive) | > 100 µM (inactive) | > 100 µM (inactive) | > 100 µM (inactive) | > 100 µM (inactive) | > 100 µM (inactive) | 27.3 µM (inactive) | > 100 µM (inactive) | > 100 µM (inactive) | > 100 µM (inactive) | – | > 100 µM (inactive) | > 100 µM (inactive) | 41.8 µM (inactive) | 93.8 µM (inactive) | > 100 µM (inactive)
7 | Cc1cc2c(cc1Cl)S(=O)(=O)OC(c1ccc([N+](=O)[O-])cc1)=N2 | > 100 µM (inactive) | > 100 µM (inactive) | > 100 µM (inactive) | > 100 µM (inactive) | > 100 µM (inactive) | > 100 µM (inactive) | > 100 µM (inactive) | > 100 µM (inactive) | – | > 100 µM (inactive) | > 100 µM (inactive) | > 100 µM (inactive) | > 100 µM (inactive) | > 100 µM (inactive) | 44.4 µM (inactive) | > 100 µM (inactive) | > 100 µM (inactive) | > 100 µM (inactive) | > 100 µM (inactive)
8 | Cc1ccc(S(=O)(=O)NC(=O)NCc2ccc(S(N)(=O)=O)cc2)cc1 | > 100 µM (inactive) | > 100 µM (inactive) | > 100 µM (inactive) | > 100 µM (inactive) | > 100 µM (inactive) | > 100 µM (inactive) | > 100 µM (inactive) | > 100 µM (inactive) | > 100 µM (inactive) | > 100 µM (inactive) | > 100 µM (inactive) | > 100 µM (inactive) | > 100 µM (inactive) | > 100 µM (inactive) | > 100 µM (inactive) | > 100 µM (inactive) | > 100 µM (inactive) | > 100 µM (inactive) | –
9 | C#CCOC(=O)C(N)CSSCC(N)C(=O)O (stereo not given) | > 100 µM (inactive) | > 100 µM (inactive) | > 100 µM (inactive) | > 100 µM (inactive) | > 100 µM (inactive) | > 100 µM (inactive) | > 100 µM (inactive) | > 100 µM (inactive) | > 100 µM (inactive) | > 100 µM (inactive) | – | > 100 µM (inactive) | > 100 µM (inactive) | – | > 100 µM (inactive) | > 100 µM (inactive) | > 100 µM (inactive) | > 100 µM (inactive) | > 100 µM (inactive)
10 | Clc1cc2ccccc2c2ccccc12 | 26.9 µM (inactive) | 41.5 µM (inactive) | > 100 µM (inactive) | 31.5 µM (inactive) | 31.7 µM (inactive) | 28.2 µM (inactive) | 37 µM (inactive) | 42.1 µM (inactive) | > 100 µM (inactive) | 32.8 µM (inactive) | 45.3 µM (inactive) | 64 µM (inactive) | 46.2 µM (inactive) | – | > 100 µM (inactive) | 30.8 µM (inactive) | 32 µM (inactive) | > 100 µM (inactive) | > 100 µM (inactive)
11 | COC1=C2CC(C)CC(OC)C(OC(=O)CCCN)C(C)/C=C(\C)C(OC(N)=O)C(OC)/C=C\C=C(/C)C(=O)NC(=CC1=O)C2=O (stereo not given) | 0.431 µM (active) | 13.2 µM (inactive) | 17.3 µM (inactive) | 4.56 µM (inactive) | 0.865 µM (active) | 2.97 µM (inactive) | 2.29 µM (inactive) | 7 µM (inactive) | 10.2 µM (inactive) | 3.12 µM (inactive) | 16.9 µM (inactive) | 6.71 µM (inactive) | 8.61 µM (inactive) | 15.5 µM (inactive) | 18.7 µM (inactive) | 3.02 µM (inactive) | 1.09 µM (active) | 7.16 µM (inactive) | 6.97 µM (inactive)
12 | C=C1OC2OC(C)C(NC(=O)OCC(Cl)(Cl)Cl)C(OC(C)=O)C2O1 (stereo not given) | > 100 µM (inactive) | > 100 µM (inactive) | > 100 µM (inactive) | > 100 µM (inactive) | > 100 µM (inactive) | > 100 µM (inactive) | > 100 µM (inactive) | > 100 µM (inactive) | > 100 µM (inactive) | > 100 µM (inactive) | > 100 µM (inactive) | > 100 µM (inactive) | > 100 µM (inactive) | > 100 µM (inactive) | – | > 100 µM (inactive) | > 100 µM (inactive) | > 100 µM (inactive) | > 100 µM (inactive)
13 | O=c1c2cc(Cl)cc(Cl)c2oc2nc3n(c(=O)c12)CCCS3 | > 100 µM (inactive) | > 100 µM (inactive) | > 100 µM (inactive) | > 100 µM (inactive) | 70.5 µM (inactive) | > 100 µM (inactive) | > 100 µM (inactive) | > 100 µM (inactive) | > 100 µM (inactive) | > 100 µM (inactive) | > 100 µM (inactive) | > 100 µM (inactive) | > 100 µM (inactive) | > 100 µM (inactive) | > 100 µM (inactive) | > 100 µM (inactive) | 57.1 µM (inactive) | > 100 µM (inactive) | –
14 | COc1ccc(OC)c(C2CCc3c(cnc4nc(N)nc(N)c34)C2)c1 (stereo not given) | 16.1 µM (inactive) | 1.58 µM (inactive) | 12.2 µM (inactive) | 1.3 µM (inactive) | 10.1 µM (inactive) | 2.56 µM (inactive) | 4.83 µM (inactive) | 10.2 µM (inactive) | 4.7 µM (inactive) | 15.8 µM (inactive) | 7.23 µM (inactive) | 22.8 µM (inactive) | 13.7 µM (inactive) | 16 µM (inactive) | – | 3.86 µM (inactive) | 20.7 µM (inactive) | 10.9 µM (inactive) | 5.36 µM (inactive)
15 | [O-][S+](c1ccccc1)C1CC2CC3(CCC21O)OCCO3 (stereo not given) | > 100 µM (inactive) | > 100 µM (inactive) | > 100 µM (inactive) | > 100 µM (inactive) | > 100 µM (inactive) | > 100 µM (inactive) | > 100 µM (inactive) | > 100 µM (inactive) | > 100 µM (inactive) | > 100 µM (inactive) | > 100 µM (inactive) | – | > 100 µM (inactive) | > 100 µM (inactive) | > 100 µM (inactive) | > 100 µM (inactive) | > 100 µM (inactive) | > 100 µM (inactive) | > 100 µM (inactive)
16 | COc1c(O)cc2c(c1O)C(=O)C1=C(CCCC1)C2=O | 19.1 µM (inactive) | 22.6 µM (inactive) | 33.4 µM (inactive) | 34.8 µM (inactive) | 33.9 µM (inactive) | 26.9 µM (inactive) | 25.8 µM (inactive) | 21.6 µM (inactive) | 38.4 µM (inactive) | 14.9 µM (inactive) | 25.2 µM (inactive) | 15.6 µM (inactive) | 24 µM (inactive) | 19.8 µM (inactive) | – | 10.8 µM (inactive) | 17.9 µM (inactive) | 34.3 µM (inactive) | 20.4 µM (inactive)
